According to ChEMBL document CHEMBL3734728, “2,30-Bis(10H-indole) heterocycles: New p53/MDM2/MDMX antagonists” (Bioorg Med Chem Lett, 2015):

How the values were obtained:
[1] = Lipophilicity, logP of the compound; type: physicochemical; details: octanol/water
[2] = target: E3 ubiquitin-protein ligase Mdm2 (Homo sapiens, UniProt Q00987)
Protein Mdm4 = target: T1, Protein Mdm4 (Homo sapiens, UniProt O15151)
T1 sequence (O15151 whole entry): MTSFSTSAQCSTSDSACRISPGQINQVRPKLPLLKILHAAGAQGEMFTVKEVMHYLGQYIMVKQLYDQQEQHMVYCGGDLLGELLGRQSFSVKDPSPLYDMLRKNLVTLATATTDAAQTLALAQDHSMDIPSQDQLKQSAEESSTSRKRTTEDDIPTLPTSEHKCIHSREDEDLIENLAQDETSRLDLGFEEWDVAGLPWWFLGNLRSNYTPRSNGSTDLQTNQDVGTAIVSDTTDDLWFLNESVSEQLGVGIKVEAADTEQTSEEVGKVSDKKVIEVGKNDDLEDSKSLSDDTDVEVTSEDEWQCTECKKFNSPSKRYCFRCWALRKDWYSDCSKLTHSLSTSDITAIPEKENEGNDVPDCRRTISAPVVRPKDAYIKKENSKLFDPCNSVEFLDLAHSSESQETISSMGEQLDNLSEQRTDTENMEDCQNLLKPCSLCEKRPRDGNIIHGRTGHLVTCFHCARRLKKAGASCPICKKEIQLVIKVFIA

Sequence of E3 ubiquitin-protein ligase Mdm2 (Q00987 whole entry): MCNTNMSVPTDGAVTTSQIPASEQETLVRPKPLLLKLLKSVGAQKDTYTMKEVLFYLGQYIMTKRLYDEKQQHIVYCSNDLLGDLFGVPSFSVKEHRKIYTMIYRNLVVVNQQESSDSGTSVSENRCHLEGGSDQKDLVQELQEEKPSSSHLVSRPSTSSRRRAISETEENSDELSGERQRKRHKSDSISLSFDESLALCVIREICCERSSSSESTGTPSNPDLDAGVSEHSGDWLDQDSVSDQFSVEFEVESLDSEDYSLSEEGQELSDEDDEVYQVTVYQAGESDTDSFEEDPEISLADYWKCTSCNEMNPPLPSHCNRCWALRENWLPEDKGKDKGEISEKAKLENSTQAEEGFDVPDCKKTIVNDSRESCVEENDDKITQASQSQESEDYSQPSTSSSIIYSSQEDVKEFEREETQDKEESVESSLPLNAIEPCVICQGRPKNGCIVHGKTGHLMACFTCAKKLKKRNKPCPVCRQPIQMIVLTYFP

SMILES	logP [1]	Ki [2]	Ki (Protein Mdm4)
CCOC(=O)c1[nH]c2cc(Cl)ccc2c1-c1c(-c2ccccc2)c2ccccc2n1Cc1ccc(Cl)cc1	7.82		
CCOC(=O)c1[nH]c2cc(Cl)ccc2c1-c1c(-c2ccc(Cl)cc2)c2ccccc2n1Cc1ccc(Cl)cc1	8.38	> 22 µM	> 60 µM
Clc1ccc(Cn2c(-c3c[nH]c4cc(Cl)ccc34)c(-c3ccccc3)c3ccccc32)cc1	7.61		
CCOC(=O)c1[nH]c2cc(Cl)ccc2c1-c1c(-c2ccc(F)cc2)c2ccccc2n1Cc1ccc(Cl)cc1	7.98		
O=C(NCCN1CCOCC1)c1[nH]c2cc(Cl)ccc2c1-c1c(-c2ccccc2)c2ccccc2n1Cc1ccc(Cl)cc1	6.4		
O=C(O)c1[nH]c2cc(Cl)ccc2c1-c1c(-c2ccc(F)cc2)c2ccccc2n1Cc1ccc(Cl)cc1	7.38		
O=C(O)c1[nH]c2cc(Cl)ccc2c1-c1c(-c2ccccc2)c2ccccc2n1Cc1ccc(Cl)cc1	7.22		
